We go through 15 compounds from US20220204539A1, “CD73 INHIBITORS” (BioArdis LLC, priority 2019, published 2022).

For experiment [1], the target named is T1, Cell surface CD73 of U87 MG human glioblastoma cells (Homo sapiens, UniProt P21589).
T1 construct: Cell surface CD73 catalyzes the conversion of adenosine monophosphate (AMP) to adenosine and inorganic phosphate; endogenous in cells; host or cells: U87 MG human glioblastoma cells
T1 sequence (P21589 27-549): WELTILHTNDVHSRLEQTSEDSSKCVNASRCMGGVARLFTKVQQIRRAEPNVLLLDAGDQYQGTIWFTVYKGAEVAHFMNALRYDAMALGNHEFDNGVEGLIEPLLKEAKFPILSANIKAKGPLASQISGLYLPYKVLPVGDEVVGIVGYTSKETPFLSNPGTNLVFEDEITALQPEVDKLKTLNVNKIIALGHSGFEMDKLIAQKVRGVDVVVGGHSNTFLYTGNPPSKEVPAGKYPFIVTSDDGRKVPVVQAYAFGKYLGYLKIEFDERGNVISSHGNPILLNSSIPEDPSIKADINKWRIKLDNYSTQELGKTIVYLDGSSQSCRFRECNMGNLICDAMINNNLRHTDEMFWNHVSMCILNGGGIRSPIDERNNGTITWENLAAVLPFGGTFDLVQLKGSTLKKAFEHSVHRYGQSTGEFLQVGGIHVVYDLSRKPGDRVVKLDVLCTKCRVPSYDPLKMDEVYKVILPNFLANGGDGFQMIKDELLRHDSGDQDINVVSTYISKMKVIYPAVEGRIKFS
The experiment can be described thus: CD73 Cellular Assay. It is filed as cell-based. The note with it: 5000 cells per well, 30 μM AMP substrate, read-out: Potency (IC50, CD73 cellular assay). The procedure, abridged: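 U87 MG cells (5000/well) preincubated with compound 30 min at 37 °C, 5% CO2, in HEPES-buffered saline pH 7.4 with 0.5% DMSO, then 30 μM AMP (final) for 50 min. Released phosphate in supernatant read colorimetrically at 635 nm; IC50 from four-parameter logistic fit versus cells-plus-substrate and cells-only controls.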

The target in experiment [2] is T2, Recombinant Human 5′-Nucleotidase (CD73) (Homo sapiens, UniProt P21589).
T2 construct: CHO derived CD73 (Trp27-Lys547), with a C-terminal 6-His tag; 6-His (C); purchased R&D 5795-EN; host or cells: CHO
T2 sequence (P21589 27-547): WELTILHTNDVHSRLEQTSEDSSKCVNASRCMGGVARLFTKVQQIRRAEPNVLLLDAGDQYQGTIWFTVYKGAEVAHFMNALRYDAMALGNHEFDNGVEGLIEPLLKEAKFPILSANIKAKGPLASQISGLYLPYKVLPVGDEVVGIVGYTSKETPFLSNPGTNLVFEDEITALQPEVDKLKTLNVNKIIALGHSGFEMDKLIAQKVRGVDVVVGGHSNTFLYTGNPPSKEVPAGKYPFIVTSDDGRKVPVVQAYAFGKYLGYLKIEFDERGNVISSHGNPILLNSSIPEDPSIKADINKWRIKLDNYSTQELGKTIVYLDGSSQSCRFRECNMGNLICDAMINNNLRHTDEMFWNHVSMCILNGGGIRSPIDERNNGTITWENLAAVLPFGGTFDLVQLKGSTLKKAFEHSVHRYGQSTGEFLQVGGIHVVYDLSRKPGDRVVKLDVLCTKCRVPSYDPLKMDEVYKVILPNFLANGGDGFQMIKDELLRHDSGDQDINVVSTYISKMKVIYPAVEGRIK
Kind of experiment: CD73 Enzyme Assay. It is filed as biochemical. The note with it: human CD73 0.5 nM, AMP 30 μM, PiColorLock phosphate detection; read-out: Potency (IC50, CD73 enzyme assay). In outline:
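Human CD73 (CHO-derived Trp27-Lys547, His-tagged; 0.5 nM final) was preincubated with compound for 15 min at 25° C. in Tris pH 7.5 buffer with MgCl2. It then reacted with 30 μM AMP for 20 min at 37° C., and released phosphate was read by malachite green absorbance at 635 nm. IC50 came from four-parameter fits against enzyme and no-enzyme controls.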

With `O=P(O)(O)CP(=O)(O)OC[C@H]1O[C@@H](c2cnc3c(N4CCCCC4)nc(Cl)nn23)[C@H](O)[C@@H]1O` [Compound 43, (((((2R,3S,4R,1S)-5-(2-chloro-4-(piperidin-1-yl)imidazo[2,1-f][1,2,4]triazin-7-yl)-3,4-dihydroxytetrahydrofuran-2-yl)methoxy)(hydroxy)phosphoryl)methyl)phosphonic Acid], the figures for the IC50 in experiment [1] and in experiment [2] were less than 1 nM and less than 10 nM, respectively.
The matching figures for `O=P(O)(O)CP(=O)(O)OC[C@H]1O[C@@H](c2cnc3c(N4CCC(F)(F)CC4)nc(Cl)nn23)[C@H](O)[C@@H]1O` [Compound 44, (((((2R,3S,4R,1S)-5-(2-chloro-4-(4,4-difluoropiperidin-1-yl)imidazo[2,1-f][1,2,4]triazin-7-yl)-3,4-dihydroxytetrahydrofuran-2-yl)methoxy)(hydroxy)phosphoryl)methyl)phosphonic Acid]: less than 1 nM and less than 10 nM.
The matching figures for `O=P(O)(O)CP(=O)(O)OC[C@H]1O[C@@H](c2cnc3c(N4CC5CC5C4)nc(Cl)nn23)[C@H](O)[C@@H]1O` (stereo partly drawn) [Compound 45, [({[(2R,3S,4R,5S)-5-(4-{3-azabicyclo[3.1.0]hexan-3-yl}-2-chloroimidazo[2,1-f][1,2,4]triazin-7-yl)-3,4-dihydroxyoxolan-2-yl]methoxy}(hydroxy)phosphoryl)methyl]phosphonic Acid]: less than 1 nM and less than 10 nM.
The matching figures for `O=P(O)(O)CP(=O)(O)OC[C@H]1O[C@@H](c2cnc3c(N4CCC(F)(F)C4)nc(Cl)nn23)[C@H](O)[C@@H]1O` [Compound 46, [({[(2R,3S,4R,5S)-5-[2-chloro-4-(3,3-difluoropyrrolidin-1-yl)imidazo[2,1-f][1,2,4]triazin-7-yl]-3,4-dihydroxyoxolan-2-yl]methoxy}(hydroxy)phosphoryl)methyl]phosphonic Acid]: less than 1 nM and less than 10 nM.
As for `O=P(O)(O)CP(=O)(O)OC[C@H]1O[C@@H](c2cnc3c(NC4CCOCC4)nc(Cl)nn23)[C@H](O)[C@@H]1O` [Compound 47, (((((2R,3S,4R,1S)-5-(2-chloro-4-((tetrahydro-2H-pyran-4-yl)amino)imidazo[2,1-f][1,2,4]triazin-7-yl)-3,4-dihydroxytetrahydrofuran-2-yl)methoxy)(hydroxy)phosphoryl)methyl)phosphonic Acid], the IC50 – broadly, the midpoint of a concentration-inhibition curve – in experiment [1] is 1 to 9.9 nM; in experiment [2], less than 10 nM.
The matching figures for `O=P(O)(O)CP(=O)(O)OC[C@H]1O[C@@H](c2cnc3c(NC4CCC(F)(F)CC4)nc(Cl)nn23)[C@H](O)[C@@H]1O` [Compound 48, [({[(2R,3S,4R,5S)-5-{2-chloro-4-[(4,4-difluorocyclohexyl)amino]imidazo[2,1-f][1,2,4]triazin-7-yl}-3,4-dihydroxyoxolan-2-yl]methoxy}(hydroxy)phosphoryl)methyl]phosphonic Acid]: 1 to 9.9 nM and less than 10 nM.
For `O=P(O)(O)CP(=O)(O)OC[C@H]1O[C@@H](c2cnc3c(NC4CCC(F)(F)C4)nc(Cl)nn23)[C@H](O)[C@@H]1O` (stereo partly drawn) [Compound 49, (((((2R,3S,4R,1S)-5-(2-chloro-4-((3,3-difluorocyclopentyl)amino)imidazo[2,1-f][1,2,4]triazin-7-yl)-3,4-dihydroxytetrahydrofuran-2-yl)methoxy)(hydroxy)phosphoryl)methyl)phosphonic Acid], in that order: less than 1 nM and less than 10 nM.
As to `O=P(O)(O)CP(=O)(O)OC[C@H]1O[C@@H](c2cnc3c(NC4CC5CCC4C5)nc(Cl)nn23)[C@H](O)[C@@H]1O` (stereo partly drawn) [Compound 50, [({[(2R,3S,4R,5S)-5-(4-{bicyclo[2.2.1]heptan-2-ylamino}-2-chloroimidazo[2,1-f][1,2,4]triazin-7-yl)-3,4-dihydroxyoxolan-2-yl]methoxy}(hydroxy)phosphoryl)methyl]phosphonic acid], the IC50 in experiment [1] was less than 1 nM; in experiment [2], less than 10 nM.
For the compound `C[C@H](Nc1nc(Cl)nn2c([C@@H]3O[C@H](COP(=O)(O)CP(=O)(O)O)[C@@H](O)[C@H]3O)cnc12)c1ccc(F)c(F)c1` [Compound 52, (((((2R,3S,4R,5S)-5-(2-chloro-4-(((S)-1-(3,4-difluorophenyl)ethyl)amino)imidazo[2,1-f][1,2,4]triazin-7-yl)-3,4-dihydroxytetrahydrofuran-2-yl)methoxy)(hydroxy)phosphoryl)methyl) phosphonic acid], the IC50 in experiment [1] was less than 1 nM; in experiment [2] it was less than 10 nM.
The matching figures for `C[C@H](Nc1nc(Cl)nn2c([C@@H]3O[C@H](COP(=O)(O)CP(=O)(O)O)[C@@H](O)[C@H]3O)cnc12)c1ccc(Cl)c(Cl)c1` [Compound 53, (((((2R,3S,4R,5S)-5-(2-chloro-4-(((S)-1-(3,4-dichlorophenyl)ethyl)amino)imidazo[2,1-f][1,2,4]triazin-7-yl)-3,4-dihydroxytetrahydrofuran-2-yl)methoxy)(hydroxy)phosphoryl)methyl)phosphonic acid]: less than 1 nM and less than 10 nM.
The matching figures for `C[C@H](Nc1nc(Cl)nn2c([C@@H]3O[C@H](COP(=O)(O)CP(=O)(O)O)[C@@H](O)[C@H]3O)cnc12)c1ccc(Cl)cc1` [Compound 54, (((((2R,3S,4R,1S)-5-(2-chloro-4-(((S)-1-(4-chlorophenyl)ethyl)amino)imidazo[2,1-f][1,2,4]triazin-7-yl)-3,4-dihydroxytetrahydrofuran-2-yl)methoxy)(hydroxy)phosphoryl)methyl)phosphonic Acid]: less than 1 nM and less than 10 nM.
The matching figures for `O=P(O)(O)CP(=O)(O)OC[C@H]1O[C@@H](c2cnc3c(N4CCC[C@H]4c4ccccc4F)nc(Cl)nn23)[C@H](O)[C@@H]1O` [Compound 55, (((((2R,3S,4R,1S)-5-(2-chloro-4-((S)-2-(2-fluorophenyl)pyrrolidin-1-yl)imidazo[2,1-f][1,2,4]triazin-7-yl)-3,4-dihydroxytetrahydrofuran-2-yl)methoxy)(hydroxy)phosphoryl)methyl)phosphonic Acid]: less than 1 nM and less than 10 nM.
Consider `O=P(O)(O)CP(=O)(O)OC[C@H]1O[C@@H](c2cnc3c(N4CCCC[C@H]4c4ccccc4)nc(Cl)nn23)[C@H](O)[C@@H]1O` [Compound 56, (((((2R,3S,4R,1S)-5-(2-chloro-4-((S)-2-phenylpiperidin-1-yl)imidazo[2,1-f][1,2,4]triazin-7-yl)-3,4-dihydroxytetrahydrofuran-2-yl)methoxy)(hydroxy)phosphoryl)methyl)phosphonic Acid], for which the results for the IC50 in experiment [1] and in experiment [2] were less than 1 nM and less than 10 nM, respectively.
Regarding `N#Cc1nc(NC2CCCC2)c2ncc([C@@H]3O[C@H](COP(=O)(O)CP(=O)(O)O)[C@@H](O)[C@H]3O)n2n1` [Compound 62, (((((2R,3S,4R,5S)-5-(2-cyano-4-(cyclopentylamino)imidazo[2,1-f][1,2,4]triazin-7-yl)-3,4-dihydroxytetrahydrofuran-2-yl)methoxy)(hydroxy)phosphoryl)methyl)phosphonic Acid], the IC50 in experiment [1] is less than 1 nM; in experiment [2], less than 10 nM.
For `O=P(O)(O)CP(=O)(O)OC[C@H]1O[C@@H](c2cnc3c(N[C@H]4CCc5ccccc54)nc(Cl)nn23)[C@H](O)[C@@H]1O` [Compound 63, [({[(2R,3S,4R,5S)-5-{2-chloro-4-[(1S)-2,3-dihydro-1H-inden-1-ylamino]imidazo[2,1-f][1,2,4]triazin-7-yl}-3,4-dihydroxyoxolan-2-yl]methoxy}(hydroxy)phosphoryl)methyl] phosphonic acid], in that order: less than 1 nM and less than 10 nM.
